Source: US11584737B2, “Heterocyclic compound” (TAKEDA PHARMACEUTICAL COMPANY LIMITED, priority 2018, dated 2023)

biological target: CDK12/CycK complex (Homo sapiens, UniProt Q9NYV4); assay: Measurement of CDK12 inhibitory activity by binding assay (TR-FRET, 66 nM BODIPY-FL-labeled AT-7519); settings: inhibitory rate against CDK12 at 1 μM test compound, 66 nM BODIPY-FL-labeled AT-7519, 2 nM CDK12/CycK
Method: Experimental Example 1: CDK12 Binding Assay
(3) Measurement of CDK12 Inhibitory Activity by Binding Assay
His-tagged CDK12/CycK complex was added to a binding assay buffer supplemented with BODIPY-FL labeled AT-7519, terbium-labeled streptavidin and biotin-labeled anti-histidine antibody, and the mixture was stood for not less than 60 min at room temperature. This solution was added to an assay plate containing a test compound dispensed therein, and the mixture was left standing for 120 min at room temperature. The final concentration of CDK12/CycK complex, BODIPY-FL-labeled AT-7519, terbium-labeled streptavidin and biotin-labeled anti-histidine antibody was set to 2 nM, 66 nM, 0.2 nM, and 0.4 nM, respectively. The fluorescence intensity derived from terbium and BODIPY-FL was measured using Envision. The signal value of each well was determined using the TR-FRET ratio calculated by the following formula. TR-FRET ratio=(fluorescence value of BODIPY-FL)÷(fluorescence value of terbium)
The inhibitory rate (%) of the test compound against CDK12 was calculated by the following formula. Inhibitory rate (%)=(1−(TR-FRET ratio of test compound−blank)÷(control−blank))×100
The TR-FRET ratio of the CDK12 enzyme reaction mixture under compound non-addition conditions is indicated as control, and the TR-FRET ratio under 3 μM AT-7519 addition conditions is indicated as blank.
The inhibitory rate of the test compound against CDK12 at […] is shown below.

Sequence of CDK12/CycK complex (Q9NYV4 whole entry, species assumed): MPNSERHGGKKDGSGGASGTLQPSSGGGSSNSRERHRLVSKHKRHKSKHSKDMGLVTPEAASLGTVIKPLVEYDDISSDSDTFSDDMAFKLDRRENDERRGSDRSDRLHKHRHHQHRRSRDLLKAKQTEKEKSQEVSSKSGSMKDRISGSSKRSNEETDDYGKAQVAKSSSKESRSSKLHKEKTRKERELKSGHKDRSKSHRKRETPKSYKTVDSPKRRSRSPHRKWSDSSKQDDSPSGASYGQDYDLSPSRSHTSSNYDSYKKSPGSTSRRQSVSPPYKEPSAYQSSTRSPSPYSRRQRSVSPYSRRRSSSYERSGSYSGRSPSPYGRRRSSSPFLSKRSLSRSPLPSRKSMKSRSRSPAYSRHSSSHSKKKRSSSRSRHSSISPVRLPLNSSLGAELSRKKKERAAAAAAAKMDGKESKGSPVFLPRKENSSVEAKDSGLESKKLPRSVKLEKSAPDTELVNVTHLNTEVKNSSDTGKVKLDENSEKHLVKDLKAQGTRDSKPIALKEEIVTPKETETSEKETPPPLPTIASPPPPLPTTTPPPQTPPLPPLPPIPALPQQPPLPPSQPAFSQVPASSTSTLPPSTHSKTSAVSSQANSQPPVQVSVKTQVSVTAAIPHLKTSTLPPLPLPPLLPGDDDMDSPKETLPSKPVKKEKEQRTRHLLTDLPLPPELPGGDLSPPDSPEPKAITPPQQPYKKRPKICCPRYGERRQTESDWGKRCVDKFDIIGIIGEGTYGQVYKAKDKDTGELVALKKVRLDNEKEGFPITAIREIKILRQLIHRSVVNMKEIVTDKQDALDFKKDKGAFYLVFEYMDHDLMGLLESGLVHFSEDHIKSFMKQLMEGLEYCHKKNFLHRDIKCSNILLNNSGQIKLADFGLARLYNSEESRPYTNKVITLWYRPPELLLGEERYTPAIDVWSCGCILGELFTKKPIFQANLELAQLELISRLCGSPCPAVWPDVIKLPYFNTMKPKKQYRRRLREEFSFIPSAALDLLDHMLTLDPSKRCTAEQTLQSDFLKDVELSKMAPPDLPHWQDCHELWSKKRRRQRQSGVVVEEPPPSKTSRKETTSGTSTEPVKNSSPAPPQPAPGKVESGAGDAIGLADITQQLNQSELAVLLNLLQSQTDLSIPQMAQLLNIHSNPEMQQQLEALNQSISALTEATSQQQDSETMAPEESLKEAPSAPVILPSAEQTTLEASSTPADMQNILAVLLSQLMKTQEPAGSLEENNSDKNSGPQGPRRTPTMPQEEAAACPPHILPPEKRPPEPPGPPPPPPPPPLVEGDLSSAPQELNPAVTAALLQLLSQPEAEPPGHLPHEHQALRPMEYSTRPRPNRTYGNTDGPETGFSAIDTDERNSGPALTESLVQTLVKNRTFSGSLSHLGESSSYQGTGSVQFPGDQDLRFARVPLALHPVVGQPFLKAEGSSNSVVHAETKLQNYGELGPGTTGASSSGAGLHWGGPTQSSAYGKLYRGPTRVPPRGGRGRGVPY
Sequence of CDK12/CycK complex (O75909 whole entry partner, species assumed): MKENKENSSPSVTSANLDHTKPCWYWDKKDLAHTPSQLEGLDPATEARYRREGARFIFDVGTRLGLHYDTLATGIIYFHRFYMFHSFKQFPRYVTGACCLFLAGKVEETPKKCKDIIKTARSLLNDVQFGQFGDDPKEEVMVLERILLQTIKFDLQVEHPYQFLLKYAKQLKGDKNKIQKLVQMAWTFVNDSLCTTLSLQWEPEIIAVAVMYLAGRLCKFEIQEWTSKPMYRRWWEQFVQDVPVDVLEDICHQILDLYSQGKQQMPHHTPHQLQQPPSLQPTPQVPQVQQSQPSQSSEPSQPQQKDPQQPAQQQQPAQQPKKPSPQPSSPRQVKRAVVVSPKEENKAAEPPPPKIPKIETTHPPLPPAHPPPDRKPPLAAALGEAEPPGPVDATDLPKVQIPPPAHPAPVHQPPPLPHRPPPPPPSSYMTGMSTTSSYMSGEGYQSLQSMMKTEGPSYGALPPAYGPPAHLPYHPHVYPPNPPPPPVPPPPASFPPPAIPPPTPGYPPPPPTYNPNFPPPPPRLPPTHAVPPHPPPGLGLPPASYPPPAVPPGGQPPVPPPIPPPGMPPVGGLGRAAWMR

First: Cn1cc(-c2ccc(N(C(=O)NCc3ccccc3)[C@H]3CC[C@H](Nc4ncc(C#N)c(NCCCO)n4)CC3)cc2)cn1 [Example 199, 3-benzyl-1-(trans-4-((5-cyano-4-((3-hydroxypropyl)amino)pyrimidin-2-yl)amino)cyclohexyl)-1-(4-(1-methyl-1H-pyrazol-4-yl)phenyl)urea]
Second: Cn1cc(-c2ccc(N(C(=O)NCc3ccccc3)[C@H]3CC[C@H](Nc4ncc(C#N)c(NC5COC5)n4)CC3)cc2)ccc1=O [Example 483, 3-benzyl-1-(trans-4-((5-cyano-4-(oxetan-3-ylamino)pyrimidin-2-yl)amino)cyclohexyl)-1-(4-(1-methyl-6-oxo-1,6-dihydropyridin-3-yl)phenyl)urea]
The inhibition at 1 µM of the first is lower: 101% for the first, 103% for the second.

First: Cn1cc(-c2ccc(N(C(=O)NCc3ccccc3)[C@H]3CC[C@H](Nc4ncc(C#N)c(N5CC(C)(O)C5)n4)CC3)nc2)cn1 [Example 482, 3-benzyl-1-(trans-4-((5-cyano-4-(3-hydroxy-3-methylazetidin-1-yl)pyrimidin-2-yl)amino)cyclohexyl)-1-(5-(1-methyl-1H-pyrazol-4-yl)pyridin-2-yl) urea]
Second: COc1ncc(-c2ccc(N(C(=O)NCc3ccccc3)[C@H]3CC[C@H](Nc4ncc(C#N)c(N5CC(C)(O)C5)n4)CC3)nc2)cn1 [Example 626, 3-benzyl-1-(trans-4-((5-cyano-4-(3-hydroxy-3-methylazetidin-1-yl)pyrimidin-2-yl)amino)cyclohexyl)-1-(5-(2-methoxypyrimidin-5-yl)pyridin-2-yl)urea]
The inhibition at 1 µM of the first is lower: 104% for the first, 105% for the second.

Compared with Cn1ccc(-c2ccc(N(C(=O)NCc3ccccc3)[C@H]3CC[C@H](Nc4ncc(C#N)c(-c5ccc(C#N)s5)n4)CC3)cn2)cc1=O [Example 492, 3-benzyl-1-(trans-4-((5-cyano-4-(5-cyano-2-thienyl)pyrimidin-2-yl)amino)cyclohexyl)-1-(1′-methyl-2′-oxo-1′,2′-dihydro-2,4′-bipyridin-5-yl)urea], Cn1cc(-c2ccc(N(C(=O)NCc3ccccc3)[C@H]3CC[C@H](Nc4ncc(C#N)c(-c5ccc(C#N)s5)n4)CC3)nn2)cn1 [Example 538, 3-benzyl-1-(trans-4-((5-cyano-4-(5-cyano-2-thienyl)pyrimidin-2-yl)amino)cyclohexyl)-1-(6-(1-methyl-1H-pyrazol-4-yl)pyridazin-3-yl)urea] is lower in inhibition at 1 µM: 92% for the first, 86% for the second.

Going from Cn1cc(-c2cnc(N(C(=O)NCc3ccccc3)[C@H]3CC[C@H](Nc4ncc(C#N)c(-c5ccc(C#N)s5)n4)CC3)cn2)cn1 [Example 495, 3-benzyl-1-(trans-4-((5-cyano-4-(5-cyano-2-thienyl)pyrimidin-2-yl)amino)cyclohexyl)-1-(5-(1-methyl-1H-pyrazol-4-yl)pyrazin-2-yl)urea] to Cc1cc(-c2nc(N[C@H]3CC[C@H](N(C(=O)NCc4ccccc4)c4cnc(-c5cnn(C)c5)cn4)CC3)ncc2C#N)[nH]n1 [Example 552, 3-benzyl-1-(trans-4-((5-cyano-4-(3-methyl-1H-pyrazol-5-yl)pyrimidin-2-yl)amino)cyclohexyl)-1-(5-(1-methyl-1H-pyrazol-4-yl)pyrazin-2-yl) urea], the inhibition at 1 µM rises from 81% to 98%.

Going from Cn1cc(-c2ccc(N(C(=O)NCc3ccccc3)[C@H]3CC[C@H](Nc4ncc(C#N)c(NC5COC5)n4)CC3)nn2)cn1 [Example 532, 3-benzyl-1-(trans-4-((5-cyano-4-(oxetan-3-ylamino)pyrimidin-2-yl)amino)cyclohexyl)-1-(6-(1-methyl-1H-pyrazol-4-yl)pyridazin-3-yl)urea] to Cc1cc(-c2nc(N[C@H]3CC[C@H](N(C(=O)NCc4ccccc4)c4ccc(-c5cnn(C)c5)nn4)CC3)ncc2C#N)[nH]n1 [Example 542, 3-benzyl-1-(trans-4-((5-cyano-4-(3-methyl-1H-pyrazol-5-yl)pyrimidin-2-yl)amino)cyclohexyl)-1-(6-(1-methyl-1H-pyrazol-4-yl)pyridazin-3-yl)urea], the inhibition at 1 µM falls from 106% to 100%.

Compared with COc1ncc(-c2ccc(N(C(=O)COc3ccccc3)[C@H]3CC[C@H](Nc4ncc(C#N)c(NC5COC5)n4)CC3)nc2)cn1 [Example 587, N-(trans-4-((5-cyano-4-(oxetan-3-ylamino)pyrimidin-2-yl)amino)cyclohexyl)-N-(5-(2-methoxypyrimidin-5-yl)pyridin-2-yl)-2-phenoxyacetamide], COc1ncc(-c2ccc(N(C(=O)COc3ccccc3)[C@H]3CC[C@H](Nc4ncc(C(F)(F)F)c(OC5COC5)n4)CC3)nc2)cn1 [Example 627, N-(5-(2-methoxypyrimidin-5-yl)pyridin-2-yl)-N-(trans-4-((4-(oxetan-3-yloxy)-5-(trifluoromethyl)pyrimidin-2-yl)amino)cyclohexyl)-2-phenoxyacetamide] is lower in inhibition at 1 µM: 102% for the first, 98% for the second.

First: COc1ncc(-c2ccc(N(C(=O)NCc3ccccc3)[C@H]3CC[C@H](Nc4ncc(C(F)(F)F)c(N5CCCC(O)CC5)n4)CC3)nc2)cn1 (stereo partly drawn) [Example 592, 3-benzyl-1-(trans-4-((4-(4-hydroxyazepan-1-yl)-5-(trifluoromethyl)pyrimidin-2-yl)amino)cyclohexyl)-1-(5-(2-methoxypyrimidin-5-yl)pyridin-2-yl)urea]
Second: COc1ncc(-c2ccc(N(C(=O)NCc3ccccc3)[C@H]3CC[C@H](Nc4ncc(C#N)c(N5CCCC(O)CC5)n4)CC3)nc2)cn1 (stereo partly drawn) [Example 595, 3-benzyl-1-(trans-4-((5-cyano-4-(4-hydroxyazepan-1-yl)pyrimidin-2-yl)amino)cyclohexyl)-1-(5-(2-methoxypyrimidin-5-yl)pyridin-2-yl)urea]
The inhibition at 1 µM of the first is lower: 101% for the first, 104% for the second.

Compared with COc1ncc(-c2ccc(N(C(=O)OCc3ccccc3)[C@H]3CC[C@H](Nc4ncc(C#N)c(N5CCCC(O)CC5)n4)CC3)nc2)cn1 (stereo partly drawn) [Example 599, benzyl (trans-4-((5-cyano-4-(4-hydroxyazepan-1-yl)pyrimidin-2-yl)amino)cyclohexyl) (5-(2-methoxypyrimidin-5-yl)pyridin-2-yl)carbamate], COc1ncc(-c2cnc(N(C(=O)OCc3ccccc3)[C@H]3CC[C@H](Nc4ncc(C#N)c(N5CC(C)(O)C5)n4)CC3)nc2)cn1 [Example 619, benzyl (trans-4-((5-cyano-4-(3-hydroxy-3-methylazetidin-1-yl)pyrimidin-2-yl)amino)cyclohexyl) (2′-methoxy-5,5′-bipyrimidin-2-yl)carbamate] is lower in inhibition at 1 µM: 102% for the first, 98% for the second.

Compared with COc1ncc(-c2cnc(N(C(=O)NCc3ccccc3)[C@H]3CC[C@H](Nc4ncc(C(F)(F)F)c(OC5COC5)n4)CC3)nc2)cn1 [Example 606, 3-benzyl-1-(2′-methoxy-5,5′-bipyrimidin-2-yl)-1-(trans-4-((4-(oxetan-3-yloxy)-5-(trifluoromethyl)pyrimidin-2-yl)amino)cyclohexyl)urea], COc1ncc(-c2ccc(N(C(=O)OCc3ccccn3)[C@H]3CC[C@H](Nc4ncc(C(F)(F)F)c(OC5COC5)n4)CC3)nc2)cn1 [Example 629, pyridin-2-ylmethyl (5-(2-methoxypyrimidin-5-yl)pyridin-2-yl) (trans-4-((4-(oxetan-3-yloxy)-5-(trifluoromethyl)pyrimidin-2-yl)amino)cyclohexyl)carbamate] is higher in inhibition at 1 µM: 96% for the first, 100% for the second.

Compared with COc1ncc(-c2cnc(N(C(=O)NCc3ccccc3)[C@H]3CC[C@H](Nc4ncc(C#N)c(N5CC(C)(O)C5)n4)CC3)cn2)cn1 [Example 620, 3-benzyl-1-(trans-4-((5-cyano-4-(3-hydroxy-3-methylazetidin-1-yl)pyrimidin-2-yl)amino)cyclohexyl)-1-(5-(2-methoxypyrimidin-5-yl)pyrazin-2-yl)urea], COc1ncc(-c2ccc(N(C(=O)NCc3ccccc3)[C@H]3CC[C@H](Nc4ncc(C(F)(F)F)c(N5CC(C)(O)C5)n4)CC3)nc2)cn1 [Example 625, 3-benzyl-1-(trans-4-((4-(3-hydroxy-3-methylazetidin-1-yl)-5-(trifluoromethyl)pyrimidin-2-yl)amino)cyclohexyl)-1-(5-(2-methoxypyrimidin-5-yl)pyridin-2-yl)urea] is higher in inhibition at 1 µM: 97% for the first, 103% for the second.

COc1ncc(-c2ccc(N(C(=O)COc3ccccc3)[C@H]3CC[C@H](Nc4ncc(C(F)(F)F)c(N5CC(C)(O)C5)n4)CC3)nc2)cn1 [Example 623, N-(trans-4-((4-(3-hydroxy-3-methylazetidin-1-yl)-5-(trifluoromethyl)pyrimidin-2-yl)amino)cyclohexyl)-N-(5-(2-methoxypyrimidin-5-yl)pyridin-2-yl)-2-phenoxyacetamide] and COc1ncc(-c2ccc(N(C(=O)OCc3ccccn3)[C@H]3CC[C@H](Nc4ncc(C(F)(F)F)c(N5CC(C)(O)C5)n4)CC3)nc2)cn1 [Example 628, pyridin-2-ylmethyl (trans-4-((4-(3-hydroxy-3-methylazetidin-1-yl)-5-(trifluoromethyl)pyrimidin-2-yl)amino)cyclohexyl) (5-(2-methoxypyrimidin-5-yl)pyridin-2-yl)carbamate] are the same in inhibition at 1 µM: 100% for the first, 100% for the second.

With COc1ncc(-c2ccc(N(C(=O)NCc3ccccn3)[C@H]3CC[C@H](Nc4ncc(C(F)(F)F)c(N5CC(C)(O)C5)n4)CC3)nc2)cn1 [Example 630, 1-(trans-4-((4-(3-hydroxy-3-methylazetidin-1-yl)-5-(trifluoromethyl)pyrimidin-2-yl)amino)cyclohexyl)-1-(5-(2-methoxypyrimidin-5-yl)pyridin-2-yl)-3-(pyridin-2-ylmethyl)urea] the inhibition at 1 µM was 104%.
